This passage reports IC50 results from ChEMBL document CHEMBL4482324, “Ash1l inhibitors and methods of treatment therewith” (2017).

The experiment deals with Histone-lysine N-methyltransferase ASH1L (Homo sapiens, UniProt Q9NR48). In words: Inhibition of MOCR-fused ASH1L SET-BAH ( 2069 to 2833 amino acids) (unknown origin) expressed as in Escherichia coli BL21 (DE3) T1R cells using SAM and chicken mono/dinucleosomes incubated for 1 hr by scintillation counting assay.
`CC(O)c1ccc2c(-c3cccc(C(N)=S)c3)cn(CC(CF)CF)c2c1` (configuration not stated) yielded a half-inhibitory concentration (IC50) below 20 µM.

Compound `Cc1cc(-c2cccc(C(N)=S)c2)ccc1O` yielded a half-inhibitory concentration (IC50) above 100 µM.

Compound `NC(=S)c1cc(-c2cn(CC(CF)CF)c3cc(CO)ccc23)ccn1` returned an IC50 below 20 µM.

Turning to `NC(=S)c1cccc(-c2cn(CC(CF)CF)c3cc(CO)ccc23)c1`, the IC50 was below 20 µM.

For `Cc1ncsc1-c1ccc(CNC(=O)[C@@H]2C[C@@H](O)CN2C(=O)[C@@H](NC(=O)COCCOCCNC(=O)CCC(=O)Nc2ccc3c(-c4cccc(C(N)=S)c4)cn(CC(CF)CF)c3c2)C(C)(C)C)cc1`, the 50% inhibitory concentration (IC50) is below 20 µM.

With `NC(=S)c1ccc(-c2ccccc2)s1`, the IC50 is above 100 µM.

For the compound `NC(=S)c1cc(-c2cn(CCC(F)F)c3cc(CO)ccc23)c2[nH]cnc2c1`, the IC50 is below 20 µM.

In turn, `Cc1cc(O)ccc1-c1cccc(C(N)=S)c1` came in with an IC50 above 100 µM.

As to `NC(=S)c1cccc(-c2cn(CCCC(F)(F)F)c3cc(CN4CCOCC4)ccc23)c1`, the half-inhibitory concentration (IC50) lay within 20 to 100 µM.

In turn, `CC(C)(C)OC(=O)Nc1nc(CC(=O)NCc2ccc3c(-c4cccc(C(N)=S)c4)cn(CCCC(F)(F)F)c3c2)cs1` returned an IC50 below 20 µM.

The compound `NC(=S)c1cc(-c2cccc3[nH]ccc23)ccc1N` gave an IC50 above 100 µM.

Regarding `NC(=S)c1cccc(-c2cn(C3CCOCC3)c3cc(SCCO)ccc23)c1`, the IC50 is below 20 µM.

For the compound `CCCNc1nnc(NCc2ccc3c(-c4cccc(C(N)=S)c4)cn(C4CCN(S(C)(=O)=O)CC4)c3c2)s1`, the concentration for half-maximal inhibition (IC50) is below 20 µM.

Turning to `NC(=S)c1cccc(-c2cccnc2)c1`, the IC50 is above 100 µM.

As to `NC(=S)c1cccc(-c2ccccn2)c1`, the IC50 is above 100 µM.

Compound `CCNc1c[nH]c(CC(=O)NCc2ccc3c(-c4cccc(C(N)=S)c4)cn(C4CCN(S(C)(=O)=O)CC4)c3c2)c1` showed an IC50 below 20 µM.

Regarding `CCCS(=O)(=O)N1CCC(n2cc(-c3cccc(C(N)=S)c3)c3ccc(CNC(=O)COc4cccc5c4C(=O)N(C4CCC(=O)NC4=O)C5=O)cc32)CC1` (configuration not stated), the IC50 was below 20 µM.

Consider `CCCCn1cnc(CC(=O)NCc2ccc3c(-c4cccc(C(N)=S)c4)cn(C4CCOCC4)c3c2)c1`, for which the IC50 was below 20 µM.

`NC(=S)c1cccc(-c2cn(CCCC(F)(F)F)c3cc(NCC(F)(F)F)ccc23)c1` yielded an IC50 below 20 µM.

In turn, `NCc1ccc(-c2cccc(C(N)=S)c2)cc1` registered an IC50 above 100 µM.

`NC(=S)c1cccc(-c2ccc(CCC(F)F)c3[nH]c(CO)cc23)c1` displayed an IC50 below 20 µM.

Consider `NC(=S)c1cccc(-c2cn(CCCC(F)(F)F)c3cc(N)ccc23)c1`, for which the half-maximal inhibitory concentration (IC50) was below 20 µM.

The compound `CCCS(=O)(=O)N1CCC(n2cc(-c3cccc(C(N)=S)c3)c3ccc(CNC(=O)Cc4c[nH]cn4)cc32)CC1` came in with an IC50 below 20 µM.

In turn, `NC(=S)c1cccc(-c2cccc3[nH]c(CO)cc23)c1` showed an IC50 above 100 µM.

In turn, `NCc1ccc2c(-c3cccc(C(N)=S)c3)cn(C3CCOCC3)c2c1` registered a half-maximal inhibitory concentration (IC50) below 20 µM.

Regarding `NC(=O)c1cc(-c2cn(CCC(F)F)c3cc(CO)ccc23)ccc1O`, the IC50 was below 20 µM.

Consider `NC(=O)c1cc2c(-c3cccc(C(N)=S)c3)cccc2[nH]1`, for which the IC50 is above 100 µM.

On to `NC(=O)C1CCN(Cc2ccc3c(-c4cccc(C(N)=S)c4)cn(CCCC(F)(F)F)c3c2)CC1`, for which the half-inhibitory concentration (IC50) lay within 20 to 100 µM.

`NC(=S)c1cccc(-c2ccc(S(N)(=O)=O)cc2)c1` gave an IC50 above 100 µM.

`CC(O)c1ccc2c(-c3cccc(C(N)=S)c3)cn(CCC(F)F)c2c1` (configuration not stated) yielded an IC50 below 20 µM.

With `NC(=S)c1cccc(-n2cc(CC(CF)CF)c3cc(CO)ccc32)c1`, the IC50 was below 20 µM.

In the case of `NC(=S)c1cc(-c2cccc3[nH]ccc23)ccc1O`, the IC50 is above 100 µM.

With `NC(=S)c1cccc(-c2cccc3c2ccn3CCO)c1`, the IC50 was above 100 µM.

Compound `NC(=S)c1cccc(-c2cn(CCCC(F)(F)F)c3cc(CNCc4c[nH]cn4)ccc23)c1` gave a concentration for half-maximal inhibition (IC50) below 20 µM.

Regarding `NC(=S)c1ccc(N)c(-c2cccc3[nH]ccc23)c1`, the IC50 was above 100 µM.

Take `NC(=S)c1cccc(-c2cn(CC(CF)CF)c3cc(NC(=O)c4ncc[nH]4)ccc23)c1`: the IC50 is below 20 µM.

For `NC(=S)c1cccc(-c2ccc(O)cc2)c1F`, the IC50 was above 100 µM.

The compound `NC(=S)c1cccc(-c2cn(CCC(F)F)c3cc(CO)ccc23)c1` showed an IC50 below 20 µM.

On to `CCCc1c[nH]c(CC(=O)NCc2ccc3c(-c4cccc(C(N)=S)c4)cn(C4CCN(S(C)(=O)=O)CC4)c3c2)c1`, for which the IC50 was below 20 µM.

For the compound `NC(=S)c1cccc(-c2cn(CCC(F)F)c3cc(N)ccc23)c1`, the IC50 was below 20 µM.

Turning to `NC(=S)c1ccc(F)c(-c2ccc(O)cc2)c1`, the IC50 was above 100 µM.

The compound `NC(=S)c1cccc(-c2c[nH]c3cc4cc[nH]c4cc23)c1` came in with an IC50 below 20 µM.

The compound `NC(=S)c1cc(-c2cn(CCC(F)F)c3cc(CO)ccc23)c2cc[nH]c2c1` had an IC50 below 20 µM.

`CSC(=N)c1cccc(-c2ccccc2)c1` registered an IC50 above 100 µM.

For `NC(=S)c1cccc(-c2cn(CCCC(F)(F)F)c3cc(CN4CCNCC4)ccc23)c1`, the 50% inhibitory concentration (IC50) lay in the range of 20 to 100 µM.

`COc1ccccc1-c1cccc(C(N)=S)c1` had an IC50 above 100 µM.

In the case of `NC(=S)c1cncc(-c2cccc3[nH]ccc23)c1`, the IC50 is above 100 µM.

As to `NC(=S)c1cccc(-c2c[nH]c3cc(CNC=O)ccc23)c1`, the IC50 was in the range of 20 to 100 µM.

With `NC(=S)c1cc(-c2cn(CCC(F)F)c3cc(CO)ccc23)c2scnc2c1`, the IC50 was below 20 µM.

For `NC(=S)c1cccc(-c2ccc(OCCOCCNC(=O)CCCCCNC(=O)c3ccc4c(c3)C(=O)OC43c4ccc(O)cc4Oc4cc(O)ccc43)c3[nH]ccc23)c1`, the half-maximal inhibitory concentration (IC50) is above 100 µM.

Take `NC(=S)c1cccc(-c2cn(CC3CCC3)c3cc(CO)ccc23)c1`: the IC50 was below 20 µM.

With `NC(=S)c1cccc(-c2ccc(CCC(F)F)c3[nH]ccc23)c1`, the 50% inhibitory concentration (IC50) was below 20 µM.

Compound `NC(=S)c1cccc(-c2cn(CCCC(F)(F)F)c3cc(CNC(=O)Cc4csc(N)n4)ccc23)c1` gave an IC50 below 20 µM.

Regarding `NC(=S)c1cccc(-n2cc(CCC(F)F)c3cc(CO)ccc32)c1`, the IC50 is below 20 µM.

The compound `COCc1cc2c(-c3cccc(C(N)=S)c3)cccc2n1C` gave an IC50 of 20 to 100 µM.

`NC(=S)c1cccc(-c2cn(C3CCN(S(=O)(=O)CCCNC(=O)c4ccc5c(c4)C(=O)OC54c5ccc(O)cc5Oc5cc(O)ccc54)CC3)c3cc(CNc4nnc(N)s4)ccc23)c1` had an IC50 below 20 µM.

`NC(=S)c1cccc(-c2cn(CCO)c3ccccc23)c1` gave a half-maximal inhibitory concentration (IC50) of 20 to 100 µM.

Take `NC(=S)c1cccc(-c2cn(CCC(F)(F)F)c3cc(N)ccc23)c1`: the concentration for half-maximal inhibition (IC50) is below 20 µM.

In the case of `CCCS(=O)(=O)N1CCC(n2cc(-c3cccc(C(N)=S)c3)c3ccc(CNc4ncc(N)s4)cc32)CC1`, the IC50 was below 20 µM.

The compound `Cn1ccc2c(-c3cccc(C(N)=S)c3)cccc21` showed an IC50 of 20 to 100 µM.

`NC(=S)c1cccc(-c2cn(CCC(F)F)c3cc(CF)ccc23)c1` had an IC50 below 20 µM.

`NC(=S)c1cccc(-c2cn(CC3C(F)(F)C3(F)F)c3cc(CO)ccc23)c1` displayed an IC50 below 20 µM.

`NC(=S)c1cccc(Oc2ccccc2)c1`: the IC50 was above 100 µM.

With `Cc1cc2c(-c3cccc(C(N)=S)c3)cccc2[nH]1`, the IC50 is above 100 µM.

`NC(=S)c1cccc(-c2cn(CC(CF)CF)c3cc(NCCc4c[nH]cn4)ccc23)c1` displayed an IC50 below 20 µM.

On to `NC(=S)c1cccc(-c2cn(CC(=O)C(F)(F)F)c3cc(CO)ccc23)c1`, for which the IC50 was below 20 µM.

As to `NC(=S)c1nccs1`, the IC50 is above 100 µM.
